Legend:
Type in all cases: ADME
Details in all cases: 0.5 h
[1] = target: T1, Cytochrome P450 2C19 (Homo sapiens, UniProt P33261); test: Drug metabolism in supersomes expressing human recombinant CYP2C19 assessed as enzyme-mediated N-desmethylclozapine metabolite formation at 10 uM after 30 mins measured per nmol of P450 by HPLC analysis
[2] = target: T2, Cytochrome P450 1A2 (Homo sapiens, UniProt P05177); test: Drug metabolism in supersomes expressing human recombinant CYP1A2 assessed as enzyme-mediated clozapine-N-oxide metabolite formation at 100 uM after 30 mins measured per nmol of P450 by HPLC analysis
T2 sequence (P05177 whole entry): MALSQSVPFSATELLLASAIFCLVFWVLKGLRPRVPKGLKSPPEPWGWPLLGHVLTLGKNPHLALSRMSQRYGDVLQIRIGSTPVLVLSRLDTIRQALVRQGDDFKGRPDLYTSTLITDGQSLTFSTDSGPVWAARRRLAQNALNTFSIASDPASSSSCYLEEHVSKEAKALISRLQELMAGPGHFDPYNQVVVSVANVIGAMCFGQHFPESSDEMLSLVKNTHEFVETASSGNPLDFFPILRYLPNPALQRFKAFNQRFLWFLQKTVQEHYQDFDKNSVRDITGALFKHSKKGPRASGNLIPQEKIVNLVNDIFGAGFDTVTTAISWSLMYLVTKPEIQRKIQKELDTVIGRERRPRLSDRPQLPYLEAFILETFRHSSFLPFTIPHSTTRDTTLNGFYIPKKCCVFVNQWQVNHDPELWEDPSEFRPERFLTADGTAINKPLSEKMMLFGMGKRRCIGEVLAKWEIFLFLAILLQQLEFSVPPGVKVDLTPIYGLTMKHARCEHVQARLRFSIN

[3] = target: Cytochrome P450 2C9 (Homo sapiens, UniProt P11712); test: Drug metabolism in supersomes expressing human recombinant CYP2C9 assessed as enzyme-mediated N-desmethylclozapine metabolite formation at 100 uM after 30 mins measured per nmol of P450 by HPLC analysis
[4] = target: T3, Cytochrome P450 1B1 (Homo sapiens, UniProt Q16678); test: Drug metabolism in supersomes expressing human recombinant CYP1B1 assessed as enzyme-mediated N-desmethylclozapine metabolite formation at 100 uM after 30 mins measured per nmol of P450 by HPLC analysis
T3 sequence (Q16678 whole entry): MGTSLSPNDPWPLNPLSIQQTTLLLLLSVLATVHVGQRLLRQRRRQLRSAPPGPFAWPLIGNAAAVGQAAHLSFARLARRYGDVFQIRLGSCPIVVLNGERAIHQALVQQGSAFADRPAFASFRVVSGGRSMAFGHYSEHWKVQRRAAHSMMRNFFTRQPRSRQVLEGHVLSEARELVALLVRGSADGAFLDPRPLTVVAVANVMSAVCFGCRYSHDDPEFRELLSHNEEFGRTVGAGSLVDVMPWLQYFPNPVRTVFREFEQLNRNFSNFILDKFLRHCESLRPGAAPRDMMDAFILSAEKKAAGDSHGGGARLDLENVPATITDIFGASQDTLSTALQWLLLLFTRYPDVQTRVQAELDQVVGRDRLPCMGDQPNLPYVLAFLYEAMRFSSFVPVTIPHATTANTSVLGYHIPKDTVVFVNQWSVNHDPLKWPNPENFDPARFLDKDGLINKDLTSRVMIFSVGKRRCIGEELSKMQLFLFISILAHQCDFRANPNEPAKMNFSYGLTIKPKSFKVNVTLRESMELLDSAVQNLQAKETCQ

[5] = target: T3, Cytochrome P450 1B1; test: Drug metabolism in supersomes expressing human recombinant CYP1B1 assessed as enzyme-mediated clozapine-N-oxide metabolite formation at 10 uM after 30 mins measured per nmol of P450 by HPLC analysis
[6] = target: T2, Cytochrome P450 1A2; test: Drug metabolism in supersomes expressing human recombinant CYP1A2 assessed as enzyme-mediated clozapine-N-oxide metabolite formation at 10 uM after 30 mins measured per nmol of P450 by HPLC analysis
[7] = target: T1, Cytochrome P450 2C19; test: Drug metabolism in supersomes expressing human recombinant CYP2C19 assessed as enzyme-mediated cyanide adduct formation at 100 uM after 30 mins measured per nmol of P450 by HPLC analysis in presence of KCN
[8] = target: T4, Cytochrome P450 1A1 (Homo sapiens, UniProt P04798); test: Drug metabolism in supersomes expressing human recombinant CYP1A1 assessed as enzyme-mediated clozapine-N-oxide metabolite formation at 100 uM after 30 mins measured per nmol of P450 by HPLC analysis
T4 sequence (P04798 whole entry): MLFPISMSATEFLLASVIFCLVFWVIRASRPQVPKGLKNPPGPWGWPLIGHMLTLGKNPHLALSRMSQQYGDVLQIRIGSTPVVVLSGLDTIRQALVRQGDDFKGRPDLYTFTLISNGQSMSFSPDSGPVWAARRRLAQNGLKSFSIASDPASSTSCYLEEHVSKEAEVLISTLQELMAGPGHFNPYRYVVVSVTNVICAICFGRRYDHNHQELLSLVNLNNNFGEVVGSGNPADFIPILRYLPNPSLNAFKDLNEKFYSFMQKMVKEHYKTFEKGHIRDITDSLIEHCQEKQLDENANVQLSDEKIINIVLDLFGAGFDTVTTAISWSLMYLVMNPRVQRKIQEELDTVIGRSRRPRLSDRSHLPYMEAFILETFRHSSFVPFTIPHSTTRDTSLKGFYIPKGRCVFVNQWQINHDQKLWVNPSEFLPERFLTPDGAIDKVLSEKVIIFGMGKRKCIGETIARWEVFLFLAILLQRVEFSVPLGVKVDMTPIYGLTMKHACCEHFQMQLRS

[9] = target: T4, Cytochrome P450 1A1; test: Drug metabolism in supersomes expressing human recombinant CYP1A1 assessed as enzyme-mediated N-desmethylclozapine metabolite formation at 100 uM after 30 mins measured per nmol of P450 by HPLC analysis
[10] = target: T3, Cytochrome P450 1B1; test: Drug metabolism in supersomes expressing human recombinant CYP1B1 assessed as enzyme-mediated clozapine-N-oxide metabolite formation at 100 uM after 30 mins measured per nmol of P450 by HPLC analysis
[11] = target: T5, Cytochrome P450 2C8 (Homo sapiens, UniProt P10632); test: Drug metabolism in supersomes expressing human recombinant CYP2C8 assessed as enzyme-mediated clozapine-N-oxide metabolite formation at 100 uM after 30 mins measured per nmol of P450 by HPLC analysis
T5 sequence (P10632 whole entry): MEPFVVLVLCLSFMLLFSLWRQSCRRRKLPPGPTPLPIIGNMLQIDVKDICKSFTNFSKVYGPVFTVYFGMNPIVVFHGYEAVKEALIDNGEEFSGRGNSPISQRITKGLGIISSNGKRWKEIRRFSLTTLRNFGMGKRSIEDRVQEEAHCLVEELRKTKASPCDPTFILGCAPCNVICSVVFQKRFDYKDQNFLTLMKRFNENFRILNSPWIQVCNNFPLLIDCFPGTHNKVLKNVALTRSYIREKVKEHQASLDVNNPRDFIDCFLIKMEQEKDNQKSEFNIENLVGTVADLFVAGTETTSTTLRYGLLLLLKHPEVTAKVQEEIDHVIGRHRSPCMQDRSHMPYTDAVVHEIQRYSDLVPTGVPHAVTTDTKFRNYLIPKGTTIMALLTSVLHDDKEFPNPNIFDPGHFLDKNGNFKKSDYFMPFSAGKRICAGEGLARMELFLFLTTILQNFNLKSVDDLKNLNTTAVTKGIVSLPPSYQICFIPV

T1 sequence (P33261 whole entry): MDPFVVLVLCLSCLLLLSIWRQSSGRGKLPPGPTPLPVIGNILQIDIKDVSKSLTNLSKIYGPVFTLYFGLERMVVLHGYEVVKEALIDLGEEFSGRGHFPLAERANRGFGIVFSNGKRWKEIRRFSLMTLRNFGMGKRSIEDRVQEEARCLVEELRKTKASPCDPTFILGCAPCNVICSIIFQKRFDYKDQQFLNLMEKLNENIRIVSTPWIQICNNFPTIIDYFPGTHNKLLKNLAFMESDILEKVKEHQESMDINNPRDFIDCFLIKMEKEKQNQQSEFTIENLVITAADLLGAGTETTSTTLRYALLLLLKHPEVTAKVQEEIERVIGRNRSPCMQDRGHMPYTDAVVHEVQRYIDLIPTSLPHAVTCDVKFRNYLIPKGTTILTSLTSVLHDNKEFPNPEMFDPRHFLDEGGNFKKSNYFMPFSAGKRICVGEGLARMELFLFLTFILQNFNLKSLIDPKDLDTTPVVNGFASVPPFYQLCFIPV
Cytochrome P450 2C9, sequence (P11712 whole entry): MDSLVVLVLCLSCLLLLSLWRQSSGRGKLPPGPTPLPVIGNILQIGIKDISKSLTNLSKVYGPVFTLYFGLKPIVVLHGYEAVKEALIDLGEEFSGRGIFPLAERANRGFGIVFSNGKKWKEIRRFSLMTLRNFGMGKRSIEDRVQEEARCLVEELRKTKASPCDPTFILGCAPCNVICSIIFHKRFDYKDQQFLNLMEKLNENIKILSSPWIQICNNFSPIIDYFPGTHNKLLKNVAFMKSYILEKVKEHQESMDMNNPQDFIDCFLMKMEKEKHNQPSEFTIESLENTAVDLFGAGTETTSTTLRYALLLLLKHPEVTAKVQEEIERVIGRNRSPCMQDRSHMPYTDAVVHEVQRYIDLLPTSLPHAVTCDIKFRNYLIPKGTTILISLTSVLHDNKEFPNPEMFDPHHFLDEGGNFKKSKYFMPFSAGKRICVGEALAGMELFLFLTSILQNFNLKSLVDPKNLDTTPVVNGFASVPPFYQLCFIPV

## CN1CCN(C2=Nc3cc(Cl)ccc3Nc3ccccc32)CC1 [CLOZAPINE]
[1]
  Drug metabolism: 6.62 nmol/min/nmol P450
[2]
  Drug metabolism: 3.7 nmol/min
[3]
  Drug metabolism: 0.22 nmol/min
[4]
  Drug metabolism: 0.94 nmol/min
[5]
  Drug metabolism: 0.84 nmol/min
[6]
  Drug metabolism: 0.55 nmol/min/nmol P450
[7]
  Drug metabolism: 0.03 nmol/min
[8]
  Drug metabolism: 0.2 nmol/min
[9]
  Drug metabolism: 0.56 nmol/min
[10]
  Drug metabolism: 0.64 nmol/min/nmol P450
[11]
  Drug metabolism: 0.075 nmol/min/nmol P450
